Legend:
[1] = test system: synthesis of LTB4 by rat glycogenelicited polymorphonuclear leukocytes (PMN); assay: inhibition of the synthesis of LTB4 (lipoxygenase oxidation product) by rat glycogen-elicited polymorphonuclear leukocytes (PMN); type: cell-based, rat (female Wistar); conditions: Leukocyte, A23187 stimulated
Procedure: This is especially true with respect to 5,12-diHETE, which also denoted as LTB4 [see Ford-Hitchinson, J. Roy. Soc. Med., 74, 831 (1981)]. The assay of this Example measures the ability of the compounds of the invention to inhibit the synthesis of LTB4 by rat glycogenelicited polymorphonuclear leukocytes (PMN).
(§1) The assay is carried out as follows:
(§2) Rat polymorphonuclear leukocytes (PMNs) are obtained from female Wistar rats (150-200 g) which receive an injection of 6% glycogen (10 ml i.p.). Rats are sacrificed 18-24 hours post injection by CO2 asphyxiation and the elicited cells are harvested by peritoneal lavage using physiological saline (0.9% NaCl). The exudate is centrifuged at 400×g for 10 minutes. The supernatant fluid is discarded and the cell pellet is resuspended in a concentration of 2.0×10^7 cells/ml in HBSS containing Ca^++ and Mg^++ and 10 μM L-cyteine.
To 1 ml aliquots of cell suspension, test drugs or vehicle are added, then preincubated at 37° C. for 10 minutes. […] Supernatants are then analyzed by HPLC analysis on a 15 cm×4.6 mm ID Supelcosil LC-18 (Supelco)(3M) column, using a two solvent system at a flow rate of 1.4 ml total flow as follows: […]
Injections: 150 μl of each supernatant is injected directly onto column and ^3 H arachidonic acid metabolites are monitored using an on-line radioactivity detector (Ramona, IN/US, Fairfield, NJ). […]

[2] = test system: synthesis of the arachidonic acid cyclooxygenase oxidation product TxB2; assay: inhibition of the synthesis of the cyclooxygenase oxidation product TxB2 by rat polymorphonuclear leukocytes; type: cell-based, rat (female Wistar); conditions: Leukocyte; rat PMN, A23187 stimulated
Procedure: as §2
To 1 ml aliquots of cell suspension, test drugs or vehicle are added, then preincubated at 37° C. for 10 minutes. A23187 (1 μM) and [^3 H]-AA (3.0 μCi/ml) are then added and the samples are further incubated for 10 minutes. The reaction is terminated by centrifugation and pelleting cells. Supernatants are then analyzed by HPLC analysis on a 15 cm×4.6 mm ID Supelcosil LC-18 (Supelco)(3M) column, using a two solvent system at a flow rate of 1.4 ml total flow as follows:
Co-chromatography with standard [^3 H] leukotriene B4 (LTB4) in medium of stimulated PMN exposed to drug is compared to that found in medium of stimulated cells exposed to no drug, generating percent inhibition.
In this assay, the procedure of Example 3 is carried out as described. […]
The results are calculated as in Example 3 and presented below: […]

[3] = test system: synthesis of PGE2 by murine peritoneal macrophages; assay: inhibition of the synthesis of PGE2 by murine peritoneal macrophages; type: cell-based, mouse (CD-1); conditions: Mus musculus, Peritoneal macrophage, zymosan or TPA stimulus, RIA
Procedure: (§3) The ability of the compounds of the invention to inhibit both leukotriene and prostaglandin synthesis is examined in an assay which measures the ability of the compounds of the invention to inhibit the synthesis of PGE2 and LTC4 by murine peritoneal macrophages.
as §1
(§4) Macrophages are removed from the peritoneal cavity of 55-57 day old CD-1 mice (killed by CO2 asphyxiation) by peritoneal lavage and centrifuged at 400×g for ten minutes. The cells are resuspended in Medium 199 and 4×10^6 cells are allowed to adhere on 35×10 mm Petri dishes for 1.5 hours at 37° C. in an atmosphere of 95% air and 5% CO2. The cell monolayers are washed and incubated overnight in Medium 199 supplemented with 10% heat inactivated bovine serum containing 1 μCi[^14 C]-arachidonic acid, or in the absence of ^14 C-arachidonic acid when the supernatant is to be assayed by radioimmunoassay (RIA). The labeled cells are then washed and incubated at 37° C. for 2 hours in Medium 199 with the prostaglandin stimuli, zymosan, or 12-o-tetradecanoyl-phorbol-13-acetate (TPA) and in the presence or absence of test compounds. Following incubation, the supernatant is removed and subjected to radioimmunoassay in order to determine the percent inhibition of prostaglandin E2 and leukotriene C4 by the test compounds.

[4] = test system: synthesis of LTC4 by murine peritoneal macrophages; assay: inhibition of the synthesis of LTC4 by murine peritoneal macrophages; type: cell-based, mouse (CD-1); conditions: Mus musculus, Peritoneal macrophage, zymosan or TPA stimulus, RIA
Procedure: as §3, §1, §4

[5] = rat carrageenan paw edema assay; type: in vivo, rat (male Sprague-Dawley); conditions: po, 3 h, read-out: Oral ED50 (95% C.L.)
Procedure: The compounds of the invention are further tested in the rat carrageenan paw edema assay to determine their ability to inhibit the acute inflammatory response. This assay is carried out as follows: 140-180 gm male Sprague-Dawley rats, in groups of 6 animals are injected subcutaneously in the right paw with 0.1 ml of 1% carrageenan at zero time. Mercury plethysmographic readings (ml) of the paw are made at zero time and 3 hours later. Test compounds are suspended or dissolved in 0.5% methylcellulose and given perorally 1 hour prior to carrageenan administration. The increase in paw volume (edema in ml.) produced by the carrageenan is measured. […] Unpaired Student's t-test is used to determine statistical significance.

IC50 [1] | IC50 [2] | IC50 [3] | IC50 [4] | SMILES | ED50 [5]
8.9 µM | 11.2 µM | 43 µM | 33 µM | CC(=NNC(=N)N)c1cccc(OCc2ccc3ccccc3c2)c1 [Example 1, 2-[1-[3-(2-Naphthalenylmethoxy)phenyl]ethylidene]-hydrazinecarboximidamide] | –
– | – | – | – | CC(=O)Oc1ccccc1C(=O)O [Aspirin] | 145 mg/kg
– | – | – | – | COc1ccc2c(c1)c(CC(=O)O)c(C)n2C(=O)c1ccc(Cl)cc1 [Indomethacin] | 3.7 mg/kg
